BindingDB's records for doi:10.1124/jpet.102.047092 (Case Western Reserve University, 2003)

Experiments:
[1] = target: Sodium-dependent serotonin transporter (Homo sapiens, UniProt P31645)
[2] = target: 5-hydroxytryptamine receptor 1D (Homo sapiens, UniProt P28221)
D(3) dopamine receptor = D(3) dopamine receptor (Homo sapiens, UniProt P35462)
Histamine H1 receptor [3] = target: Histamine H1 receptor (Rattus norvegicus, UniProt P31390)
Vasopressin V1b receptor = target: T1, Vasopressin V1b receptor (Homo sapiens, UniProt P47901)
T1 sequence (P47901 whole entry): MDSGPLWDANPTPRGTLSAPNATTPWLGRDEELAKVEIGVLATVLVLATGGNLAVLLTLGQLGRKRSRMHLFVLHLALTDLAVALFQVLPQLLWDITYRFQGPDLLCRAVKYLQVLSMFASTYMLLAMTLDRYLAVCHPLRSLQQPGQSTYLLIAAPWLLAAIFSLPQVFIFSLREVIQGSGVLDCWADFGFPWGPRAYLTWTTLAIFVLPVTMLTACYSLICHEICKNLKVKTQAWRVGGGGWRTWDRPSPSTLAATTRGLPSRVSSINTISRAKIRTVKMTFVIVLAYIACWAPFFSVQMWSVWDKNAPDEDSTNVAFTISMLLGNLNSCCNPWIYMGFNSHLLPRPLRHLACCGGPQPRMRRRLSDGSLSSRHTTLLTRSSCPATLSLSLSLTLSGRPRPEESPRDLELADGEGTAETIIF

[4] = target: T2, Alpha-2B adrenergic receptor (Homo sapiens, UniProt P18089)
T2 sequence (P18089 whole entry): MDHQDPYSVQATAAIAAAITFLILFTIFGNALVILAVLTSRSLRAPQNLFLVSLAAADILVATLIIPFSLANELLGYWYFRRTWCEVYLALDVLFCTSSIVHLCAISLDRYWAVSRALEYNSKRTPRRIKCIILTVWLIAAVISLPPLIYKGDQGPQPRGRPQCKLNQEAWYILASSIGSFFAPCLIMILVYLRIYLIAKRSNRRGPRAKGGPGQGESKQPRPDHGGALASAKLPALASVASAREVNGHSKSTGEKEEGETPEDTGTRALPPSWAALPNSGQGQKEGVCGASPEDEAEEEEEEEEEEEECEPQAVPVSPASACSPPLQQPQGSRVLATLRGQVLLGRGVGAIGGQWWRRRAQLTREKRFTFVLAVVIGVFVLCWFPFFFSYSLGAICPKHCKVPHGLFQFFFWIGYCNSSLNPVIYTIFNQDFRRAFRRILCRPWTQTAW

[5] = target: Neuronal acetylcholine receptor subunit alpha-2 (Homo sapiens, UniProt Q15822)
Neuronal acetylcholine receptor subunit alpha-2, sequence (Q15822 whole entry): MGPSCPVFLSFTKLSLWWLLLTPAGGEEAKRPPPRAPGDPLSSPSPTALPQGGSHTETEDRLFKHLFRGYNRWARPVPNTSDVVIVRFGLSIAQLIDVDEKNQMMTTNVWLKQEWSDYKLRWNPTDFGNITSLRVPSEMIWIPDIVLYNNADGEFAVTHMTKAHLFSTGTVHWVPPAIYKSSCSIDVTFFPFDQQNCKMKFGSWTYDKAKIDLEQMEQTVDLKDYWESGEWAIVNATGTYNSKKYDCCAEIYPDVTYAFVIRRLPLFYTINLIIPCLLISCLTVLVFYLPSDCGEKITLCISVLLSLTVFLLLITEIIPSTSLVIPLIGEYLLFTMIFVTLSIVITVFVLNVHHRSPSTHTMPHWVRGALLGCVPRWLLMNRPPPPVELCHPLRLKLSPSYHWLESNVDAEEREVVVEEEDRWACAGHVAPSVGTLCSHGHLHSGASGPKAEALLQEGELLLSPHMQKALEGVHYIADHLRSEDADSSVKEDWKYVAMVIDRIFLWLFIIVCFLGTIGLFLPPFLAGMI

Histamine H2 receptor = Histamine H2 receptor (Homo sapiens, UniProt P25021)
[6] = target: Voltage-dependent L-type calcium channel subunit alpha-1C (Rattus norvegicus, UniProt P22002)
Histamine H4 receptor = Histamine H4 receptor (Homo sapiens, UniProt Q9H3N8)
Cannabinoid receptor 1 = Cannabinoid receptor 1 (Rattus norvegicus, UniProt P20272)
Cannabinoid receptor 1, sequence (P20272 whole entry): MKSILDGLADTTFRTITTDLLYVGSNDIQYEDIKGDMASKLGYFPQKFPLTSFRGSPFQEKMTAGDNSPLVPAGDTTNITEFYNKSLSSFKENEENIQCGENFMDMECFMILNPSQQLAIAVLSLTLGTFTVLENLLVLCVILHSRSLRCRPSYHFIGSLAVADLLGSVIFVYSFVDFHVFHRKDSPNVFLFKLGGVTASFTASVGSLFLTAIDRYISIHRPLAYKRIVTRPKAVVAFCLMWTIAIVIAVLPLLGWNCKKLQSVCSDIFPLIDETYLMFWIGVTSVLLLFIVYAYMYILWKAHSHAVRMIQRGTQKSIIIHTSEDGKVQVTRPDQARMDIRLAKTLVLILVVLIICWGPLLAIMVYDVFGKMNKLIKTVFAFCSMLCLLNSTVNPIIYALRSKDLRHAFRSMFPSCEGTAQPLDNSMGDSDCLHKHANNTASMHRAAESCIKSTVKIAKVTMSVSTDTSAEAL

[7] = target: Beta-1 adrenergic receptor (Rattus norvegicus, UniProt P18090)
Beta-1 adrenergic receptor, sequence (P18090 whole entry): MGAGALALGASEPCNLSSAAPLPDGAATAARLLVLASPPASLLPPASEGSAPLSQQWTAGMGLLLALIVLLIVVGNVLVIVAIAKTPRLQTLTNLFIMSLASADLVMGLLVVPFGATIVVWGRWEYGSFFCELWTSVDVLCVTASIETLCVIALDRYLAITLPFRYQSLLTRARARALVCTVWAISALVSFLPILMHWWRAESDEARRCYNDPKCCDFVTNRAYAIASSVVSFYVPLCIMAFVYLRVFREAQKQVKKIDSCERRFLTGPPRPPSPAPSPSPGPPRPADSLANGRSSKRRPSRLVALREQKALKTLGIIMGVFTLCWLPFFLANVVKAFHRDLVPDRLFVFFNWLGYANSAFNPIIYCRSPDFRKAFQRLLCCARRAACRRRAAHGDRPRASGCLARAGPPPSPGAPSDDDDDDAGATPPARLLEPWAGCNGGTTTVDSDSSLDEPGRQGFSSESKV

Histamine H1 receptor [8] = target: Histamine H1 receptor (Homo sapiens, UniProt P35367)
Histamine H1 receptor (Homo sapiens, UniProt P35367), sequence (P35367 whole entry): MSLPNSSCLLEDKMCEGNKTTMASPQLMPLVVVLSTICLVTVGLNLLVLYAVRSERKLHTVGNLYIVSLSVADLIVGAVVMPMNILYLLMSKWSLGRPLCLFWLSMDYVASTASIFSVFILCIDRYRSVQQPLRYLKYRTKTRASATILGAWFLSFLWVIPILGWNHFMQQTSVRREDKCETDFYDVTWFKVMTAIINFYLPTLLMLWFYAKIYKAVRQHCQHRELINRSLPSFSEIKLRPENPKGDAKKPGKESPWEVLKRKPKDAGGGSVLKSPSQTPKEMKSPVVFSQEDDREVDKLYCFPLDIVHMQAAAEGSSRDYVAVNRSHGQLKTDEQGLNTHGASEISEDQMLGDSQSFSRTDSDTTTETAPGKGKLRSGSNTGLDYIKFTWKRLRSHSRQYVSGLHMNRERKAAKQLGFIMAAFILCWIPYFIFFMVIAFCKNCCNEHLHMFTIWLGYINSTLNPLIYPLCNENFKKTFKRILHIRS

[9] = target: Neuronal acetylcholine receptor subunit alpha-4 (Rattus norvegicus, UniProt P09483)
[10] = target: Neuronal acetylcholine receptor subunit alpha-4 (Homo sapiens, UniProt P43681)
[11] = target: Metabotropic glutamate receptor 4 (Rattus norvegicus, UniProt P31423)
Metabotropic glutamate receptor 4, sequence (P31423 whole entry): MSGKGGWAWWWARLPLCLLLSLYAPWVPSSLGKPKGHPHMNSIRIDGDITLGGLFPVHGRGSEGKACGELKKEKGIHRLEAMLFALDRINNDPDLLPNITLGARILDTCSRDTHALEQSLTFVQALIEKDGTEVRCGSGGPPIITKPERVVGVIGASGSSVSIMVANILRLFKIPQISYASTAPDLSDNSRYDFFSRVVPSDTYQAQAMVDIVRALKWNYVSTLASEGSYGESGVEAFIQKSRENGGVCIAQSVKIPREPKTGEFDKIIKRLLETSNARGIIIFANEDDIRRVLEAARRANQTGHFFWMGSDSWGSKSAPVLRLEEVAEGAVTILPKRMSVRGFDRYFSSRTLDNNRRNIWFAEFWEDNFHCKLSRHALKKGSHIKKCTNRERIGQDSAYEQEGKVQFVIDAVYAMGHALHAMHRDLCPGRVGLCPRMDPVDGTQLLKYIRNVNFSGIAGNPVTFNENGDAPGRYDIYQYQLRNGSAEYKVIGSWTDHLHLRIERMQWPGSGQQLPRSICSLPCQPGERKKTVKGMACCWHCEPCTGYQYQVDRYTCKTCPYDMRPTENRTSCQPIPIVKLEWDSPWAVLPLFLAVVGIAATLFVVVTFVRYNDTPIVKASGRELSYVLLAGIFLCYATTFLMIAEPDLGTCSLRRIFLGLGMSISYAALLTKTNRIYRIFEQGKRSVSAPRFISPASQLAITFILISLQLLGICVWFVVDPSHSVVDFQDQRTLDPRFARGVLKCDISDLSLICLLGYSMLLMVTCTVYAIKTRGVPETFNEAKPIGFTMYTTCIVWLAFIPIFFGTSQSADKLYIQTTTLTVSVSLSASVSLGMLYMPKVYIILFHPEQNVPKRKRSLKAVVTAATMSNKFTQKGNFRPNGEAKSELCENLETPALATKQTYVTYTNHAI

[12] = target: Metabotropic glutamate receptor 5 (Rattus norvegicus, UniProt P31424)
Metabotropic glutamate receptor 5, sequence (P31424 whole entry): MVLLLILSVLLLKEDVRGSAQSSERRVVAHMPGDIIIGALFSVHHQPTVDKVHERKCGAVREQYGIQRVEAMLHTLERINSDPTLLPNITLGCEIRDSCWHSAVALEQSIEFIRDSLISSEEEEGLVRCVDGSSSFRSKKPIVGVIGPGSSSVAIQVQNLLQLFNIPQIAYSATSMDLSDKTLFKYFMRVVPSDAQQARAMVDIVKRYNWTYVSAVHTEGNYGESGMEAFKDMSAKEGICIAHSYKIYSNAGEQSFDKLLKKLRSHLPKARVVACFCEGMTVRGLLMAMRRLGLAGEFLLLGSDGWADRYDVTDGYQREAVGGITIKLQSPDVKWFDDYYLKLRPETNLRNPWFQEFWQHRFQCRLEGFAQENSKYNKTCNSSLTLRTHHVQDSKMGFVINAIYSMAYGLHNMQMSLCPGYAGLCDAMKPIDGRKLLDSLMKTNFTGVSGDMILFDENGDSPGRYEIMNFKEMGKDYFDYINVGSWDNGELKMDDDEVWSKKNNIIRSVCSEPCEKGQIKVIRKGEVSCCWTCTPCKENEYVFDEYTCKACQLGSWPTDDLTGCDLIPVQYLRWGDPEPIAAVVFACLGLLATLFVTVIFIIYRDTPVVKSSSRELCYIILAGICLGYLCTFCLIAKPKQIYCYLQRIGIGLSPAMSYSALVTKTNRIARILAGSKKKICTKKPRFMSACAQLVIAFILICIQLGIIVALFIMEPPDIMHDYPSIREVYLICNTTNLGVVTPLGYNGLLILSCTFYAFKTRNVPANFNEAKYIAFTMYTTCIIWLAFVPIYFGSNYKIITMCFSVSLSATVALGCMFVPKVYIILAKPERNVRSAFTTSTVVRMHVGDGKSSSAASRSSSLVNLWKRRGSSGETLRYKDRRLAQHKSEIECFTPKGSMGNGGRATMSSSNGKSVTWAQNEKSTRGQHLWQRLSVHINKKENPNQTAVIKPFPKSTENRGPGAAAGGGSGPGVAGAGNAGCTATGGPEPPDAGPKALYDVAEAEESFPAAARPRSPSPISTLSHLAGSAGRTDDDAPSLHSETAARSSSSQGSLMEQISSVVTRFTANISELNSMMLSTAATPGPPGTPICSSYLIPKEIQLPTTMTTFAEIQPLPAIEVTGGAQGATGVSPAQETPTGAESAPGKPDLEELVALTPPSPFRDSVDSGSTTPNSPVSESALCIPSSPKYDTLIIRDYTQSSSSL

[13] = target: Metabotropic glutamate receptor 2 (Rattus norvegicus) (UniProt P31421)
Metabotropic glutamate receptor 2 (Rattus norvegicus), sequence (P31421 whole entry, looked up): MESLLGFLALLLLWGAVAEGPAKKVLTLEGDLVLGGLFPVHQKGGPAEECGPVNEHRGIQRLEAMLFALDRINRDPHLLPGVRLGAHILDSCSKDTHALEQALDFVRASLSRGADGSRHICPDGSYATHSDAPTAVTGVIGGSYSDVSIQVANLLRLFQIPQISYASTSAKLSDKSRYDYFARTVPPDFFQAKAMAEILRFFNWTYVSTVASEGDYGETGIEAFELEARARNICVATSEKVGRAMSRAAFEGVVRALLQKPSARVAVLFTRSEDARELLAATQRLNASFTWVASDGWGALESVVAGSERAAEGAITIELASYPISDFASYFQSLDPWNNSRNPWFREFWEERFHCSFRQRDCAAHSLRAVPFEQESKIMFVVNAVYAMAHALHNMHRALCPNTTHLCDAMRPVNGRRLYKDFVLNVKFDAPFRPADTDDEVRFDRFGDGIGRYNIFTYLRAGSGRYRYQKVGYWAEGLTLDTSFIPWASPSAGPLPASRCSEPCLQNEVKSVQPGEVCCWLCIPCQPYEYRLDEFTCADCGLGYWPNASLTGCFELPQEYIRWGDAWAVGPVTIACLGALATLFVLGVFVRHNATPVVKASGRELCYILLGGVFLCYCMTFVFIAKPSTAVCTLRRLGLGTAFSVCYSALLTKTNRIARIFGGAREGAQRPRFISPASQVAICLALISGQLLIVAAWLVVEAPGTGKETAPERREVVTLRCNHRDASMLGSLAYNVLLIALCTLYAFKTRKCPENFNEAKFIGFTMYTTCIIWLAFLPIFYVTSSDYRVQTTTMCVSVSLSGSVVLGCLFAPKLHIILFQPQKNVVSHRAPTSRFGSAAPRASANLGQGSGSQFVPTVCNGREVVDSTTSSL

[14] = target: Metabotropic glutamate receptor 1 (Rattus norvegicus, UniProt P23385)
[15] = target: Metabotropic glutamate receptor 6 (Rattus norvegicus, UniProt P35349)
Nischarin = Nischarin (Rattus norvegicus, UniProt Q4G017)
[16] = target: Metabotropic glutamate receptor 8 (Rattus norvegicus, UniProt P70579)

Compound	Ki [1] [µM]	Ki [2] [µM]	Ki (D(3) dopamine receptor) [µM]	Ki (Histamine H1 receptor [3]) [µM]	Ki (Vasopressin V1b receptor) [µM]	Ki [4] [µM]	Ki [5] [µM]	Ki (Histamine H2 receptor) [µM]	Ki [6] [µM]	Ki (Histamine H4 receptor) [µM]	Ki (Cannabinoid receptor 1) [µM]	Ki [7] [µM]	Ki (Histamine H1 receptor [8]) [µM]	Ki [9] [µM]	Ki [10] [µM]	Ki (Nischarin) [µM]	also measured
N[C@@H](CCS(=O)(=O)O)C(=O)O (racemic)	> 10	> 10	> 10	> 10	> 10	> 10	–	–	–	–	–	–	–	–	–	–	–
NC(CSSCC(N)C(=O)O)C(=O)O (stereo not drawn) [CAS_595]	> 10	> 10	> 10	> 10	> 10	> 10	> 10	> 10	> 10	> 10	> 10	> 10	> 10	> 10	> 10	> 10	–
N[C@H](CCS(=O)O)C(=O)O [D-homocysteine sulfinic acid]	> 10	> 10	> 10	> 10	> 10	> 10	> 10	> 10	> 10	> 10	> 10	> 10	> 10	> 10	> 10	> 10	–
N[C@@H]1CCSC1=O [D-homocysteine thiolactone]	> 10	–	–	–	–	–	> 10	> 10	> 10	> 10	> 10	> 10	> 10	> 10	> 10	> 10	–
N[C@@H](CCS(=O)O)C(=O)O [L-homocysteine sulfinic acid]	–	> 10	> 10	> 10	> 10	> 10	> 10	> 10	> 10	> 10	> 10	> 10	> 10	> 10	> 10	> 10	EC50 [11]: > 10 µM; EC50 [12]: 5.75 µM; EC50 [13]: > 10 µM; EC50 [14]: > 10 µM; EC50 [15]: 6.17 µM; EC50 [16]: > 10 µM
N[C@H]1CCSC1=O [NSC_134505]	> 10	–	–	–	–	> 10	> 10	> 10	> 10	> 10	> 10	> 10	> 10	> 10	> 10	> 10	–

Now from value to molecule, other results behind:

Ki [1] [µM]	Ki [2] [µM]	Ki (D(3) dopamine receptor) [µM]	Ki (Histamine H1 receptor [3]) [µM]	Ki (Vasopressin V1b receptor) [µM]	Ki [4] [µM]	Ki [5] [µM]	Ki (Histamine H2 receptor) [µM]	Ki [6] [µM]	Ki (Histamine H4 receptor) [µM]	Ki (Cannabinoid receptor 1) [µM]	Ki [7] [µM]	Ki (Histamine H1 receptor [8]) [µM]	Ki [9] [µM]	Ki [10] [µM]	Ki (Nischarin) [µM]	Compound	also measured
> 10	> 10	> 10	> 10	> 10	> 10	> 10	> 10	> 10	> 10	> 10	> 10	> 10	> 10	> 10	–	N[C@@H](CCS)C(=O)O (racemic) [CAS_778]	–
> 10	> 10	> 10	> 10	> 10	> 10	> 10	> 10	> 10	> 10	> 10	> 10	> 10	> 10	> 10	> 10	NC(CS(=O)O)C(=O)O (stereo not drawn) [CAS_109]	EC50 [11]: > 10 µM; EC50 [12]: > 10 µM; EC50 [13]: > 10 µM; EC50 [14]: > 10 µM; EC50 [15]: > 10 µM; EC50 [16]: > 10 µM
> 10	> 10	> 10	> 10	> 10	> 10	> 10	> 10	> 10	> 10	> 10	> 10	> 10	> 10	> 10	> 10	N[C@@H](CS)C(=O)O [CAS_5862]	–
> 10	> 10	> 10	> 10	> 10	> 10	> 10	> 10	> 10	> 10	> 10	> 10	> 10	> 10	> 10	> 10	CSCC[C@@H](N)C(=O)O [CAS_6137]	–
> 10	> 10	> 10	> 10	> 10	> 10	> 10	> 10	> 10	> 10	> 10	> 10	> 10	> 10	> 10	> 10	N[C@H](CCS(=O)(=O)O)C(=O)O [D-homocysteic acid]	–
> 10	> 10	> 10	> 10	> 10	–	> 10	> 10	> 10	> 10	> 10	> 10	> 10	> 10	> 10	> 10	N[C@H](CS(=O)(=O)O)C(=O)O [L-cysteic acid]	EC50 [11]: > 10 µM; EC50 [12]: > 10 µM; EC50 [13]: > 10 µM; EC50 [14]: > 10 µM; EC50 [15]: > 10 µM; EC50 [16]: > 10 µM
